{"source": "patent US11992620B2", "about": "“Methods of reducing the risk of mortality associated with a medical treatment” (Mallinckrodt Hospital Products IP Limited, priority 2013, dated 2024)", "key": {"[1]": {"system": "preterm neonates less than 30 weeks gestational age and less than 1250 grams", "experiment": "BPD-301 study: multi-center, double blind, placebo-controlled randomized clinical trial of inhaled nitric oxide for prevention of BPD", "format": "in vivo, human", "design": "Mortality by race, % / ALIVE No (mortality rate), %: concentration or dose not given beside the values", "conditions": "for Mortality by race, %: INO N = 229", "description": "A multi-center, double blind, placebo-controlled randomized clinical trial designated the “BPD-301” study was conducted to examine the efficacy of inhaled nitric oxide in preventing BPD in preterm neonates less than 30 weeks gestational age and less than 1250 grams who required mechanical ventilation or positive pressure support. Patients were identified as (1) American Indian or Alaska Native, (2) Asian, (3) Black, (4) Hispanic, (5) White, or (6) Other. Continuous inhaled nitric oxide or placebo gas administration into the inspiratory limb of the ventilator circuit in the mechanically ventilated subject was accomplished using an INOvent® delivery device. The placebo group received the same dose of nitrogen that the active or treatment group received of inhaled nitric oxide. Administration of inhaled nitric oxide or placebo was begun at a point during the window of time 5 to 14 days after the subject's birth and continued for 24 days thereafter. The starting dose was 20 ppm. A dose reduction schedule was followed: after 72 hours of treatment at 20 ppm, reducing to 10 ppm, and then reducing to 5 ppm on day 10. If an infant was extubated before 24 days, therapy was continued via nasal continuous positive airway pressure or nasal cannula to complete the protocol. 451 infants less than 30 weeks of gestation age were included in this trial, of which 449 were randomized and 2 were not randomized. There was a 1:1 randomization with 220 infants treated with placebo and 229 treated with inhaled nitric oxide.\nIn order to enroll in the BPD 301 study and receive inhaled nitric oxide for the prevention of BPD, a pre-term neonate could not have already previously been administered inhaled nitric oxide.\nAdditionally, if the pre-term neonate had undiagnosed pulmonary hypertension and happened to be placed on placebo (nitrogen) for purposes of the BPD-301 study, the pre-term neonate's hypoxic respiratory failure would have worsened and would have likely required immediate treatment with commercial inhaled nitric oxide. This administration of commercial inhaled nitric oxide would have failed the subject from the trial, both reducing the power of the trial and eliminating the subject from the study analysis.\nA synopsis of the BPD-301 protocol follows.\nThe placebo and treatment groups were matched for the following characteristics: gestational age, age at the start of treatment, sex, length at birth, weight, head circumference, respiratory severity scores, apgar scores, and physical exam results."}, "pre-term neonates [2]": {"system": "pre-term neonates", "conditions": "5 ppm for 7 days, cited from earlier work"}, "pre-term neonates [3]": {"system": "pre-term neonates", "conditions": "10 ppm for 1 day, then 5 ppm for 6 days, cited from earlier work"}, "pre-term neonates [4]": {"system": "pre-term neonates", "conditions": "5 ppm increased to 10 ppm if no response; mean 3 days therapy; cited from earlier work"}, "pre-term neonates [5]": {"system": "pre-term neonates", "conditions": "5 ppm while intubated, cited from earlier work"}, "pre-term neonates [6]": {"system": "pre-term neonates", "conditions": "5 ppm for 7-21 days, cited from earlier work"}, "pre-term neonates [7]": {"system": "pre-term neonates", "conditions": "cited from earlier work"}, "[8]": {"system": "experimental BPD in preterm lambs", "conditions": "prolonged therapy, cited from earlier work"}, "[9]": {"conditions": "FEMALE N = 64, inhaled nitric oxide-treated white infants less than 27 weeks gestational age"}, "[10]": {"conditions": "median treatment duration 14 days"}}, "note": "Like-named read-outs stand apart in the source and are kept apart here."}
{"smiles": "[N]=O", "note": "[inhaled nitric oxide, nitric oxide]", "values": [{"measurement": "Mortality by race, %", "setting": "[1]; ALL, p=0.436 vs placebo, Fisher's exact test", "result": 11.35, "unit": "%"}, {"measurement": "Mortality by race, %", "setting": "[1]; American Indian or Alaska Native", "result": 0.00, "unit": "%"}, {"measurement": "Mortality by race, %", "setting": "[1]; Asian", "result": 0.00, "unit": "%"}, {"measurement": "Mortality by race, %", "setting": "[1]; Black", "result": 2.62, "unit": "%"}, {"measurement": "ALIVE No (mortality rate), %", "setting": "[1]; [9]", "result": 4.7, "unit": "%"}, {"measurement": "ALIVE Yes, %", "setting": "[1]; [9]", "result": 95.3, "unit": "%"}, {"measurement": "Mortality by race, %", "setting": "[1]; Hispanic", "result": 1.31, "unit": "%"}, {"measurement": "ALIVE No (mortality rate), %", "setting": "[1]; MALE N = 56, inhaled nitric oxide-treated white infants less than 27 weeks gestational age", "result": 21.4, "unit": "%"}, {"measurement": "ALIVE Yes, %", "setting": "[1]; MALE N = 56, inhaled nitric oxide-treated white infants less than 27 weeks gestational age, p=0.011 male vs female", "result": 78.6, "unit": "%"}, {"measurement": "Mortality by race, %", "setting": "[1]; Native Hawaiian or other Pacific Islander", "result": 0.00, "unit": "%"}, {"measurement": "Mortality by race, %", "setting": "[1]; Other", "result": 0.87, "unit": "%"}, {"measurement": "Mortality by race, %", "setting": "[1]; White", "result": 6.55, "unit": "%"}, {"measurement": "difference in mortality between treatment and placebo groups", "setting": "[1]; any other racial category (than white)", "result": "no similar difference"}, {"measurement": "mortality rate, inhaled nitric oxide vs placebo group", "setting": "[1]; overall trial population, Fisher's exact test p=0.436", "result": "not significantly different"}, {"measurement": "mortality rate vs placebo group", "setting": "[1]; white population", "result": "higher mortality rate"}, {"measurement": "ALIVE No (deaths), %", "setting": "[1]; white preterm infants less than 27 weeks gestational age, INO N = 120", "result": 12.5, "unit": "%"}, {"measurement": "ALIVE Yes, %", "setting": "[1]; white preterm infants less than 27 weeks gestational age, INO N = 120, p=0.010 vs placebo", "result": 87.5, "unit": "%"}, {"measurement": "risk of death as compared to placebo", "setting": "[1]; white, male, preterm infants of less than 27 weeks gestational age treated for prevention of BPD", "result": "significant risk of death"}, {"measurement": "death or BPD", "setting": "pre-term neonates [2]", "result": 77, "unit": "%"}, {"measurement": "severe intraventricular haemorrhage (IVH)", "setting": "pre-term neonates [2]", "result": "no increase"}, {"measurement": "reduction in death or BPD", "setting": "pre-term neonates [2]; vs placebo, p=0.14", "result": 15.4, "unit": "%"}, {"measurement": "CLD/death", "setting": "pre-term neonates [3]", "result": 48.6, "unit": "%"}, {"measurement": "severe IVH/PVL", "setting": "pre-term neonates [3]", "result": 12.4, "unit": "%"}, {"measurement": "reduction in \"abnormal or delayed\" development", "setting": "pre-term neonates [3]; p=0.01", "result": 47, "unit": "%"}, {"measurement": "reduction in CLD/death", "setting": "pre-term neonates [3]; vs placebo, p=0.03", "result": 24, "unit": "%"}, {"measurement": "reduction in severe IVH/PVL", "setting": "pre-term neonates [3]; vs placebo, p=0.04", "result": 47, "unit": "%"}, {"measurement": "IVH vs placebo", "setting": "pre-term neonates [4]", "result": "no difference"}, {"measurement": "death or BPD vs placebo", "setting": "pre-term neonates [4]", "result": "no difference"}, {"measurement": "IVH/PVL", "setting": "pre-term neonates [5]", "result": 17.5, "unit": "%"}, {"measurement": "CLD or death", "setting": "pre-term neonates [5]; [10]", "result": 71.6, "unit": "%"}, {"measurement": "CLD or death vs placebo", "setting": "pre-term neonates [5]; [10]", "result": "no difference"}, {"measurement": "reduction in IVH/PVL", "setting": "pre-term neonates [5]; vs placebo", "result": 27, "unit": "%"}, {"measurement": "survival without BPD at 36 weeks postmenstrual age", "setting": "pre-term neonates [6]", "result": 65, "unit": "%"}, {"measurement": "survival without BPD at 36 weeks postmenstrual age vs placebo", "setting": "pre-term neonates [6]; p=0.73", "result": "no difference"}, {"measurement": "survival without CLD at 36 weeks postmenstrual age", "setting": "pre-term neonates [7]; 20 ppm for 2 to 4 days, then stepped-down weekly, 24 days", "result": 43.9, "unit": "%"}, {"measurement": "improvement in survival without CLD at 36 weeks postmenstrual age", "setting": "pre-term neonates [7]; 20 ppm for 2 to 4 days, then stepped-down weekly, 24 days, vs placebo, p=0.042", "result": 20, "unit": "%"}, {"measurement": "discharged or off all ventilator support", "setting": "pre-term neonates [7]; 40 weeks, p=0.01", "result": 65, "unit": "%"}, {"measurement": "discharged or off all ventilator support", "setting": "pre-term neonates [7]; 44 weeks, p=0.03", "result": 82, "unit": "%"}, {"measurement": "lung vascular growth", "setting": "[8]; after VEGF inhibition", "result": "improves lung vascular growth"}, {"measurement": "alveolarization", "setting": "[8]; experimental BPD in preterm lambs", "result": "improves alveolarization"}]}
